Values after ≈ are worked out from the molar mass of the structure shown.
What was measured:
[1] = Human plasma protein binding, equilibrium dialysis (RED); format: in vitro ADME; conditions: dialysis for 18 hours
Experimental: Human Plasma Protein Binding
The automated equilibrium dialysis assay in human plasma uses the RED (Rapid Equilibrium Dialysis) Device and sample handling. The assay generally runs over two to three days including delivery of results. After dialysis for 18 hours, plasma and buffer samples are prepared for analysis by liquid chromatography and mass spectrometry. Samples are generally tested in singlicates and quantified by LC/MSMS by using a 7-point calibration curve in plasma. The compounds are pooled together in plasma pools up to 10 compounds. Three reference compounds are used in each run, Propranolol, Metoprolol and Warfarin. Warfarin is used as a control in each pool and Propranolol and Metoprolol are placed randomly in each run. An in-house Excel macro is used for preparation of files for the robot and the mass spectrometer and also used for the calculations of fraction unbound (fu %) in plasma.

[2] = biological target: ERα receptor in MCF-7 human ductal carcinoma breast cell line (Homo sapiens (Human), UniProt P03372); experiment: MCF-7 ER down regulation assay (immuno-fluorescence); format: cell-based; conditions: MCF-7 cells; for DC50: 18-22 hours incubation, read-out: ER down regulation IC50 value
Sequence of ERα receptor in MCF-7 human ductal carcinoma breast cell line (P03372 whole entry): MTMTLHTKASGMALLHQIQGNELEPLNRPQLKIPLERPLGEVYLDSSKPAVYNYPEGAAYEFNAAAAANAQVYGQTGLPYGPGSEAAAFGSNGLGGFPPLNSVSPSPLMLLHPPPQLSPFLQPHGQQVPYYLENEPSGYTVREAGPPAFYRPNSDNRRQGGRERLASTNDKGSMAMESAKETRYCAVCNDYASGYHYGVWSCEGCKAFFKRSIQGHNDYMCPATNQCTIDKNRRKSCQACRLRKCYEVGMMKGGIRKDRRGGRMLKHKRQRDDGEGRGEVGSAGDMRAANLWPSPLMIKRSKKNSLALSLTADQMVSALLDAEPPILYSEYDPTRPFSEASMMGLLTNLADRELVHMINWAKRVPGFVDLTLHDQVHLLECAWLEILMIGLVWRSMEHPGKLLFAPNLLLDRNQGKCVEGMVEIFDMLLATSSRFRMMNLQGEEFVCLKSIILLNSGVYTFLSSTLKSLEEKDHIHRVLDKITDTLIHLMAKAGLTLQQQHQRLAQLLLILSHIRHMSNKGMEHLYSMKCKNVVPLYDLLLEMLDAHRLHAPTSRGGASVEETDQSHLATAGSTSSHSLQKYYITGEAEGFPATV
Experimental: MCF-7 ER Down Regulation Assay
The ability of compounds to down-regulate Estrogen Receptor (ER) numbers was assessed in a cell based immuno-fluorescence assay using the MCF-7 human ductal carcinoma breast cell line. MCF-7 cells were revived directly from a cryovial (approx 5×10^6 cells) in Assay Medium (phenol red free Dulbecco's Modified Eagle's medium (DMEM) (Sigma D5921) containing 2mM L-Glutamine and 5% (v/v) Charcoal/Dextran treated foetal calf serum. Cells were syringed once using a sterile 18 G×1.5 inch (1.2×40 mm) broad gauge needle and cell density was measured using a Coulter Counter (Beckman). Cells were further diluted in Assay Medium to a density of 3.75×10^4 cells per mL and 40 μL per well added to transparent bottomed, black, tissue culture treated 384 well plates (Costar, No. 3712) using a Thermo Scientific Matrix WellMate or Thermo Multidrop. Following cell seeding, plates were incubated overnight at 37° C., 5% CO2 (Liconic carousel incubator). Test data was generated using the LabCyte Echo™ model 555 compound reformatter which is part of an automated workcell (Integrated Echo 2 workcell). 10 mM compound stock solutions of the test compounds were used to generate a 384 well compound dosing plate (Labcyte P-05525-CV1). […] 40 μΛ of DMSO added to wells in row P on the source plate allow for DMSO normalisation across the dose range. To dose the control wells 40 μL of DMSO was added to row O1 and 40 μL of 100 μM fulvestrant in DMSO was added to row O3 on the compound source plate. […] Compounds were dispensed onto the cell plates with a compound source plate prepared as above producing a 12 pt duplicate 3 μM to 3 pM dose range with 3 fold dilutions and one final 10 fold dilution using the Integrated Echo 2 workcell. […] Cells were fixed at room temperature for 20 mins before being washed two times with 250 μL PBS/Proclin (PBS with a Biocide preservative) using a BioTek platewasher, 40 μL of PBS/Proclin was then added to all wells and the plates stored at 4° C. The fixing method described above was carried out on the Integrated Echo 2 workcell. Immunostaining was performed using an automated AutoElisa workcell. The PBS/Proclin was aspirated from all wells and the cells permeabilised with 40 μL PBS containing 0.5% Tween™ 20 (v/v) for 1 hour at room temperature. The plates were washed three times in 250 μL of PBS/0.05% (v/v) Tween 20 with Proclin (PBST with a Biocide preservative) and then 20 μL of ERα (SP1) Rabbit monoclonal antibody (Thermofisher) 1:1000 in PBS/Tween™/3% (w/v) Bovine Serum Albumin was added. The plates were incubated overnight at 4° C. (Liconic carousel incubator) and then washed three times in 250 μL of PBS/0.05% (v/v) Tween™ 20 with Proclin (PBST). The plates were then incubated with 20 μL/well of a goat anti-rabbit IgG AlexaFluor 594 or goat anti-rabbit AlexaFluor 488 antibody (Molecular Probes) with Hoechst at 1:5000 in PBS/Tween™/3% (w/v) Bovine Serum Albumin for lhour at room temperature. The plates were then washed three times in 250 μL of PBS/0.05% (v/v) Tween™ 20 with Proclin (PBST with a Biocide preservative). 20 μL of PBS was added to each well and the plates covered with a black plate seal and stored at 4° C. before being read. Plates were read using a Cellomics Arrayscan reading the 594 nm (24 hr time point) or 488 nm (5 hr timepoint) fluorescence to measure the ERα receptor level in each well. The mean total intensity was normalized for cell number giving the total intensity per cell.

[3] = logD shake flask, 1-octanol/aqueous buffer; format: physicochemical; conditions: pH 7.4
Text: The lipophilicity of a drug is an important physical property which may influence many biological and metabolic properties of a compound. The distribution coefficient between 1-octanol and aqueous buffer, Log DO/W, at pH 7.4, is the most commonly used measurement of the lipophilicity of a compound. The current method for measurement of Log DO/W is based on the traditional shake flask technique, but with the modification of measuring compounds in mixtures of ten at a time using UPLC with quantitative mass spectrometry (MS) as a method to measure the relative octanol and aqueous concentrations. […] An additional QC sample Caffeine, with low Log D, are used and randomly placed in all runs. The method has been thoroughly validated against the previous shake flask methodologies.

[4] = Thermodynamic solubility, shake-flask; format: physicochemical; conditions: thermodynamic from solid; aqueous phosphate buffer pH 7.4, 24 hours at 25° C.
Experimental: The thermodynamic solubility of a research compound is measured under standard conditions. It is a shake-flask approach that uses 10 mM DMSO solutions which are supplied from the Compound Managements liquid store and is a high throughput method. The dried compounds are equilibrated in an aqueous phosphate buffer (pH 7.4) for 24 hours at 25° C., the portion with the dissolved compound is then separated from the remains. The solutions are analyzed and quantified using UPLC/MS/MS, QC-samples are incorporated in each assay-run to ensure the quality of the assay.

[5] = Human hepatocyte assay (metabolic stability); format: in vitro ADME; conditions: human hepatocytes, 37° C., 1.0×10^6 viable cells/mL; read-out: Clint (in vitro intrinsic clearance)
Experimental: The metabolic stability of compounds in human hepatocytes was assessed using the following protocol: • 1. Prepare 10 mM stock solutions of compound and control compounds in appropriate solvent (DMSO). Place incubation medium (L-15Medium) in a 37° C. water bath, and allow warming for at least 15 minutes prior to use. • 2. Add 80 μL of acetonitrile to each well of the 96-well deep well plate (quenching plate). • 3. In a new 96-well plate, dilute the 10 mM test compounds and the control compounds to 100 μM by combining 198 μL of acetonitrile and 2 μL of 10 mM stock. • 4. Remove a vial of cryopreserved (less than −150° C.) human hepatocytes (LiverPool™ 10 Donor Human hepatocytes obtained from Celsis IVT. Chicago, Ill. (Product No. S01205)) from storage, ensuring that vials remain at cryogenic temperatures until thawing process ensues. As quickly as possible, thaw the cells by placing the vial in a 37° C. water bath and gently shaking the vials. Vials should remain in water bath until all ice crystals have dissolved and are no longer visible. After thawing is completed, spray vial with 70% ethanol, transfer the vial to a bio-safety cabinet. • 5. Open the vial and pour the contents into the 50 mL conical tube containing thawing medium. Place the 50 mL conical tube into a centrifuge and spin at 100 g for 10 minutes. […] Using Cellometer® Vision, count cells and determine the viable cell density. Cells with poor viability (<80% viability) are not acceptable for use. Dilute cells with incubation medium to a working cell density of 1.0×10^6 viable cells/mL. • 7. Transfer 247.5 μL of hepatocytes into each well of a 96-well cell culture plate. Place the plate on Eppendorf Thermomixer Comfort plate shaker to allow the hepatocytes to warm for 10 minutes. • 8. Add 2.5 μL of 100 μM test compound or control compounds into an incubation well containing cells, mix to achieve a homogenous suspension at 0.5 min, which when achieved, will define the 0.5 min time point. At the 0.5 min time, transfer 20 μL incubated mixture to wells in a “Quenching plate” followed by vortexing. • 9. Incubate the plate at 37° C. at 900 rpm on an Eppendorf Thermomixer Comfort plate shaker. At 5, 15, 30, 45, 60, 80, 100 and 120 min, mix the incubation system and transfer samples of 20 μL incubated mixture at each time point to wells in a separate “Quenching plate” followed by vortexing. • 10. Centrifuge the quenching plates for 20 minutes at 4,000 rpm. 4 different compounds are pooled into one cassette and used for LC/MS/MS analysis.
All calculations are carried out using Microsoft Excel. Peak areas are determined from extracted ion chromatograms. In vitro intrinsic clearance (in vitro Clint, in μL/min/10^6 cells) of parent compound is determined by regression analysis of the Ln percent parent disappearance vs. time curve. The in vitro intrinsic clearance (in vitro Clint, in μL/min/10^6 cells) is determined from the slope value using the following equation and is shown in Table C:
V=incubation volume (0.25 mL);
N=number of hepatocytes per well (0.25×10 ^6 cells).

C[C@@H]1Cc2c(ccc3[nH]ncc23)[C@@H](c2ncc(OCCN3CC(CF)C3)cc2F)N1CC(F)(F)F [Example 50, (6S,8R)-6-(3-fluoro-5-(2-(3-(fluoromethyl)azetidin-1-yl)ethoxy)pyridin-2-yl)-8-methyl-7-(2,2,2-trifluoroethyl)-6,7,8,9-tetrahydro-3H-pyrazolo[4,3-f]isoquinoline]
Human plasma protein binding (% free) [1]: 20 % free | DC50 [2]: 0.5 nM | logD [3]: 2.8 | solubility at 24 h [4]: 1000 µM (≈ 495 µg/mL)

C[C@@H]1Cc2c(ccc3[nH]ncc23)[C@@](C)(c2ccc(OCCN3CC(CF)C3)cc2)N1CC1(F)COC1 [Example 32, (6R,8R)-6-(4-(2-(3-(fluoromethyl)azetidin-1-yl)ethoxy)phenyl)-7-((3-fluorooxetan-3-yl)methyl)-6,8-dimethyl-6,7,8,9-tetrahydro-3H-pyrazolo[4,3-f]isoquinoline]
DC50 [2]: 0.076 nM | hepatocyte CLint at 1 µM [5]: 29 µL/min/1e6 cells

C[C@@H]1Cc2c(ccc3[nH]ncc23)[C@@H](c2c(F)cc(NCCN3CC(CF)C3)cc2F)N1CC(C)(C)F [Example 47, 3,5-difluoro-4-((6S,8R)-7-(2-fluoro-2-methylpropyl)-8-methyl-6,7,8,9-tetrahydro-3H-pyrazolo[4,3-f]isoquinolin-6-yl)-N-(2-(3-(fluoromethyl)azetidin-1-yl)ethyl)aniline]
DC50 [2]: 0.28 nM | % downregulation (in brackets) in ER down regulation assay ([2]; >90% unless otherwise stated): 86% | hepatocyte CLint at 1 µM [5]: 8 µL/min/1e6 cells

C[C@@H]1Cc2c(ccc3[nH]ncc23)[C@@](C)(c2c(F)cc(OCCN3CC(CF)C3)cc2F)N1CC(C)(C)F [Example 2, (6S,8R)-6-(2,6-difluoro-4-(2-(3-(fluoromethyl)azetidin-1-yl)ethoxy)phenyl)-7-(2-fluoro-2-methylpropyl)-6,8-dimethyl-6,7,8,9-tetrahydro-3H-pyrazolo[4,3-f]isoquinoline]
DC50 [2]: 0.088 nM | hepatocyte CLint at 1 µM [5]: 8 µL/min/1e6 cells

CC(C)CN1[C@H](c2ccc(OCCN3CC(CF)C3)cn2)c2ccc3[nH]ncc3c2C[C@H]1C [Example 40, (6S,8R)-6-(5-(2-(3-(fluoromethyl)azetidin-1-yl)ethoxy)pyridin-2-yl)-7-isobutyl-8-methyl-6,7,8,9-tetrahydro-3H-pyrazolo[4,3-f]isoquinoline]
DC50 [2]: 0.36 nM | hepatocyte CLint at 1 µM [5]: 8 µL/min/1e6 cells

Source: US10125135B2, “Chemical compounds” (AstraZeneca AB, priority 2016, dated 2018)
